In ChEMBL document CHEMBL1201862, “PubChem BioAssay data set” (2004):
The source made the active and inactive calls.

Tests used:
[1] = target: Voltage-gated inwardly rectifying potassium channel KCNH2 (Homo sapiens, UniProt Q12809); settings: Potency;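 also: confirmatory quantitative high-throughput screen measuring inhibition of hERG channel activity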
HEK293 [2] = assay: cells; format: functional, cell-based; settings: Homo sapiens
Cysteine protease ATG4B = target: T1, Cysteine protease ATG4B (Homo sapiens, UniProt Q9Y4P1); format: functional;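 also: Fluorescence-based dose-response confirmation assay measuring inhibition of ATG4B activity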
T1 sequence (Q9Y4P1 whole entry): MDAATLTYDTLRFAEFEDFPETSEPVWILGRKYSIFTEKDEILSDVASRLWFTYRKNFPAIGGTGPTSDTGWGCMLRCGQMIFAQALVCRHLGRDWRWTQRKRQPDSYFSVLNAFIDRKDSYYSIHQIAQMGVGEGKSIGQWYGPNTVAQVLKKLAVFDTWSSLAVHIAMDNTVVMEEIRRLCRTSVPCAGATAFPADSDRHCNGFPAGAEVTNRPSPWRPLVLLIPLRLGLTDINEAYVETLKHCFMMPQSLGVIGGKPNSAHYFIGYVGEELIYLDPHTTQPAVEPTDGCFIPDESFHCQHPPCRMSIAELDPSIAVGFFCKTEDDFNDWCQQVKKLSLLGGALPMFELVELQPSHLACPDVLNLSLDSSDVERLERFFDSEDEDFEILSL

[3] = cytotoxicity in HEK-293T cells, dose response, cytotoxicity control for BCR NF-kB inhibitor project, luminescence, B-cell screen hits (AID 489021); format: functional, cell-based;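 also: HEK-293T cells carrying an NF-kB luciferase reporter; cells exposed to compound for about 14 hours before viability readout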
[4] = target: Nucleotide-binding oligomerization domain-containing protein 2 (Homo sapiens, UniProt Q9HC29); assay: NOD2 signaling inhibitors, cell-based, luminescence, uHTS, HEK293 (AID 1566); format: functional
Nucleotide-binding oligomerization domain-containing protein 2, sequence (Q9HC29 whole entry, the tested form may be a part): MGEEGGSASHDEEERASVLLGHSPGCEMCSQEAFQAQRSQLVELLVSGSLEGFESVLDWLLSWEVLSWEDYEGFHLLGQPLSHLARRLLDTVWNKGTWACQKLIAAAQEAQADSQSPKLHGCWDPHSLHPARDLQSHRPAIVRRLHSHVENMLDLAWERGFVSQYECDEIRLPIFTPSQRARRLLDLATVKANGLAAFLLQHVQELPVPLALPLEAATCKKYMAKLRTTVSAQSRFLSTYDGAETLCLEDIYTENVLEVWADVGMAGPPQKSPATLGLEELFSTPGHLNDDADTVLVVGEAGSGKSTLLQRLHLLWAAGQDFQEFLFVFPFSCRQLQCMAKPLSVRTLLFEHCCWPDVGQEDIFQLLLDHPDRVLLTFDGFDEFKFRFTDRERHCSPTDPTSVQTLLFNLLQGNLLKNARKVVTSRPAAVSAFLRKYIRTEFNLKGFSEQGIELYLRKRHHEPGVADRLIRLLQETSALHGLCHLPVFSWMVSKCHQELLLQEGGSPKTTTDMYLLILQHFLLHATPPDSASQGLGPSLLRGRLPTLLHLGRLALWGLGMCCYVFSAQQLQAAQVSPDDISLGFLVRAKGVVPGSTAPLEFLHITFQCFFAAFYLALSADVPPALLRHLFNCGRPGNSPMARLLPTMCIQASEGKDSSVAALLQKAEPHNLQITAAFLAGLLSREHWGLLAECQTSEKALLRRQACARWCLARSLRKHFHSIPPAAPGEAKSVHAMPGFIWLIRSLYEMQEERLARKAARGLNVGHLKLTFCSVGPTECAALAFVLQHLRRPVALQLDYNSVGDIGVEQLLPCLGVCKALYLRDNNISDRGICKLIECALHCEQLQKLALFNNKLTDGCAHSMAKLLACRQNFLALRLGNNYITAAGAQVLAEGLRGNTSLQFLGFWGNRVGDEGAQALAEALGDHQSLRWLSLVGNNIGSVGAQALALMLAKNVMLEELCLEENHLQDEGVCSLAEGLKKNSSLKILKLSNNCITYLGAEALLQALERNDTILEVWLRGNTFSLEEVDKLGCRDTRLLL

HEK293 [5] = assay: NOD2 signaling inhibitors in MDP-stimulated cells, cell-based, uHTS, luminescence (AID 2001); format: functional; settings: Homo sapiens
Phospholipase A2 = Phospholipase A2 (Homo sapiens, UniProt P04054); format: functional;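 also: confirmatory dose-response counterscreen on phospholipase A2, testing hits that came from an ultra-high-throughput screen for ATG4B inhibitors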
Phospholipase A2, sequence (P04054 whole entry): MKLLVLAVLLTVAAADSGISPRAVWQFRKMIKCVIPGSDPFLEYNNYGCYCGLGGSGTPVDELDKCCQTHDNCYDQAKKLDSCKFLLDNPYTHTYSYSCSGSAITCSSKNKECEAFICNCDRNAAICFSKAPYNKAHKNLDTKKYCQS

[6] = Luminescence Cell-Based Dose Confirmation HTS to Identify Inhibitors of Platelet Dense Granule Release. [Related pubchem assays: 1663 (Primary HTS), 1678 (Summary of Project)]; format: functional
HEK293 [7] = assay: cells; format: functional, cell-based; settings: Homo sapiens; remark: listed apart in the source
[8] = target: Luciferin 4-monooxygenase (Photinus pyralis, UniProt P08659); assay: firefly luciferase enzyme inhibitors, dose response, biochemical, luminescence (AID 1891)
Luciferin 4-monooxygenase, sequence (P08659 whole entry): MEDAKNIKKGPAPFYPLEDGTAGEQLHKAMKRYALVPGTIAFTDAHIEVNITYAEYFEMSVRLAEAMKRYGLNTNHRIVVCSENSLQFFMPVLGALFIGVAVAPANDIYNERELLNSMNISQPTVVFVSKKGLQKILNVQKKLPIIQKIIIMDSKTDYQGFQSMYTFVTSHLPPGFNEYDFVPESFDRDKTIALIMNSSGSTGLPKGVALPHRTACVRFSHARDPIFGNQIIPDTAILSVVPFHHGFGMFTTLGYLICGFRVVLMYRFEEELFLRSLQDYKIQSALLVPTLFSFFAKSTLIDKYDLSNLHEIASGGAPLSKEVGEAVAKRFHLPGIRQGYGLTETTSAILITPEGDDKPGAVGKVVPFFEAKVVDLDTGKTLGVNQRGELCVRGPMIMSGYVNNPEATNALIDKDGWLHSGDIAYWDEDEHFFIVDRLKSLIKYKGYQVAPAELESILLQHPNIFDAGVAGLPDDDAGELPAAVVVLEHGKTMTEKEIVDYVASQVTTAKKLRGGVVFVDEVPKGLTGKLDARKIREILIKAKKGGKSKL

HEK293 [9] = assay: NOD1 signaling inhibitors, primary screen, cell-based, luminescence, uHTS (AID 1578); format: functional; settings: Homo sapiens
HEK293 [10] = assay: cells; format: functional, cell-based; settings: Homo sapiens; remark: listed apart in the source
[11] = Counterscreen for AddAB inhibitors: absorbance-based bacterial cell-based high throughput dose response assay for inhibitors of bacterial viability. [Related pubchem assays (depositor defined):AID435030, AID449728, AID449731, AID488942, AID488955, AID488956]; format: functional
[12] = Vero E6 cell cytotoxicity, dose response, cytotoxicity control for non-replicating M. tuberculosis project, secondary assay (AID 492998); format: functional, VeroE6; settings: Vero C1008
[13] = THP-1 cell cytotoxicity, dose response, cytotoxicity control for non-replicating M. tuberculosis project (AID 489025); format: functional
Exodeoxyribonuclease V = target: T2, Exodeoxyribonuclease V (Escherichia coli (strain K12), UniProt P04993+P07648+P08394); assay: E. coli RecBCD inhibitors, dose response, counter-screen for AddAB inhibitor project, absorbance, V66 E. coli, mutant T4 phage (AID 492957); format: functional, cell-based, Escherichia coli str. K-12 substr. MG1655
T2 sequence (P04993 whole entry): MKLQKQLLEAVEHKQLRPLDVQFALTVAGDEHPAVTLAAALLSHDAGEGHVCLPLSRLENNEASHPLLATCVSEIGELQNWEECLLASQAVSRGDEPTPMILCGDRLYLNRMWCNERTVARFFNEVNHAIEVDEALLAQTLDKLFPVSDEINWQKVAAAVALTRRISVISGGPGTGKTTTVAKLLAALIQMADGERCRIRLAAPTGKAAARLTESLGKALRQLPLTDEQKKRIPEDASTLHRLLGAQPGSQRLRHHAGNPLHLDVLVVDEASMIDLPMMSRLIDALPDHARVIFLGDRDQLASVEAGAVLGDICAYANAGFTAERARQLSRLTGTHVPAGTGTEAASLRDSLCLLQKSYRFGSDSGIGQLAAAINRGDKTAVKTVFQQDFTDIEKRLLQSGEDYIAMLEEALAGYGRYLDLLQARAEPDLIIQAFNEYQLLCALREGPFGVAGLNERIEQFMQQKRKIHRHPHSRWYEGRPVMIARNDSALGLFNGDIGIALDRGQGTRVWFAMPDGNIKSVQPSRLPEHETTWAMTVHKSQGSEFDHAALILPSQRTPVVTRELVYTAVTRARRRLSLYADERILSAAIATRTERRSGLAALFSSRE
T2 sequence (P07648 whole entry): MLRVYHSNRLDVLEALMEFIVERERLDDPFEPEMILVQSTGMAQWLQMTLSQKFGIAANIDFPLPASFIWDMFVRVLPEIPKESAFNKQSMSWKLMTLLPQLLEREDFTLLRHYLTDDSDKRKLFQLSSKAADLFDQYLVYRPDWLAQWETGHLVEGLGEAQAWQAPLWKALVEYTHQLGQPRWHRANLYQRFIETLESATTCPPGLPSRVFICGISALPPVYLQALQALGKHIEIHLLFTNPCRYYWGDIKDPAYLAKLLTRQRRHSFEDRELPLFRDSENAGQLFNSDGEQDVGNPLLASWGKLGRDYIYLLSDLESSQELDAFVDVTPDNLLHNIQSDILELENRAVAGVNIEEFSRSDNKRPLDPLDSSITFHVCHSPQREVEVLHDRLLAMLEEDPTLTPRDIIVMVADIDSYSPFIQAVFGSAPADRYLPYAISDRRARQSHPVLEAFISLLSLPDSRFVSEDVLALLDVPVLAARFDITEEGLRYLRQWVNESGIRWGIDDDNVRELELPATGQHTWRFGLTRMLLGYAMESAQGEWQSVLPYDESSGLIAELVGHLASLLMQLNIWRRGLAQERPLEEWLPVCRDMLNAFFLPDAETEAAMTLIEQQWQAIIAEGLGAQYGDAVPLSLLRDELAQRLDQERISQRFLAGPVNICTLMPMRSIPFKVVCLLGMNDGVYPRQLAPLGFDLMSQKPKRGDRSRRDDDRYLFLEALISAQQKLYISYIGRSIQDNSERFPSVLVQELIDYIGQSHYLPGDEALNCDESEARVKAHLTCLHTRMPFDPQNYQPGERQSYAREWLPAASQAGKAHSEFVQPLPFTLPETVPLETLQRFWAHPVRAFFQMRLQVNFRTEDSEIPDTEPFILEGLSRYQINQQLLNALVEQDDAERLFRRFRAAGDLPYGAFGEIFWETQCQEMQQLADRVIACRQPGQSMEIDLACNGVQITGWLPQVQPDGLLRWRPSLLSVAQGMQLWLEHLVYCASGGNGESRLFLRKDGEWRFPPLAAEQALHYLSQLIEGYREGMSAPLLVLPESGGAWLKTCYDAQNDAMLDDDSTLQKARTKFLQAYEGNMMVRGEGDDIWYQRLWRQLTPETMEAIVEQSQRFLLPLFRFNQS
T2 sequence (P08394 whole entry): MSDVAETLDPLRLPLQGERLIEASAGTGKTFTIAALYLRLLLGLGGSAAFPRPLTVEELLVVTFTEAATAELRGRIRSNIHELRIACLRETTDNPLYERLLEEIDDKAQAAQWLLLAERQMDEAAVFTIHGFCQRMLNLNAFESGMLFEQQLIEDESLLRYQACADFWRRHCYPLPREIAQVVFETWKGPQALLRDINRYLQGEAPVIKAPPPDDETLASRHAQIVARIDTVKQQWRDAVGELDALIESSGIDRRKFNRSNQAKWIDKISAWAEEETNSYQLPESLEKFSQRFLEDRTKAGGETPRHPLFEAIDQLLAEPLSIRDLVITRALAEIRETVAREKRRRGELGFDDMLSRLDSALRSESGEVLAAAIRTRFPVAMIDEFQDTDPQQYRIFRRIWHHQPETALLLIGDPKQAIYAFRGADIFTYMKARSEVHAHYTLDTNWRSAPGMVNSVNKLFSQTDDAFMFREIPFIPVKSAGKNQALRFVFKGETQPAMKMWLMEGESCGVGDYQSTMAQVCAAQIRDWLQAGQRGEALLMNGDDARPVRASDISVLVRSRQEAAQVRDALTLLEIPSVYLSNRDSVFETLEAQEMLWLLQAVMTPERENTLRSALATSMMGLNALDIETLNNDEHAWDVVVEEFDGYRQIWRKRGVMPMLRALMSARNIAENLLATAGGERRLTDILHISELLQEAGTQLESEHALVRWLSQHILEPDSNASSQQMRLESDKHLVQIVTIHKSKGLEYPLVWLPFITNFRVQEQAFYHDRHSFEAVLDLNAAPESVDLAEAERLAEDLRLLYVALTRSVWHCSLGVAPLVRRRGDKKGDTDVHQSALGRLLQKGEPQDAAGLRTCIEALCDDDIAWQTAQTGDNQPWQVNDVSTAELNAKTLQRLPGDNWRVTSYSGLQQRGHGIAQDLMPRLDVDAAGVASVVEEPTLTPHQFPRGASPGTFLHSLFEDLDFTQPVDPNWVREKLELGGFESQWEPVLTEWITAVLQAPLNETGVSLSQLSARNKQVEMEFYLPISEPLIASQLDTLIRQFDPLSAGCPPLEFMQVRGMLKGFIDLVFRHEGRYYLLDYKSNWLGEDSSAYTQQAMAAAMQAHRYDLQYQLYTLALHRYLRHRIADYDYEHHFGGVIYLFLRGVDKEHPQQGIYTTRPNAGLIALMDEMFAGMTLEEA

[14] = StAR promoter reporter inhibition counter-screen, dose response, counter-screen for LRH-1 inverse agonist project, cell-based, luminescence, luciferase reporter (AID 651969); format: functional
Steroidogenic factor 1 = Steroidogenic factor 1 (Homo sapiens, UniProt Q13285); assay: Counterscreen for inverse agonists of the liver receptor homolog-1 (LRH-1; NR5A2): Luminescence-based cell-based high throughput dose response assay to identify inverse agonists of the Steroidogenic Factor 1 Nuclear Receptor (SF1; NR5A1).; format: functional
Steroidogenic factor 1, sequence (Q13285 whole entry): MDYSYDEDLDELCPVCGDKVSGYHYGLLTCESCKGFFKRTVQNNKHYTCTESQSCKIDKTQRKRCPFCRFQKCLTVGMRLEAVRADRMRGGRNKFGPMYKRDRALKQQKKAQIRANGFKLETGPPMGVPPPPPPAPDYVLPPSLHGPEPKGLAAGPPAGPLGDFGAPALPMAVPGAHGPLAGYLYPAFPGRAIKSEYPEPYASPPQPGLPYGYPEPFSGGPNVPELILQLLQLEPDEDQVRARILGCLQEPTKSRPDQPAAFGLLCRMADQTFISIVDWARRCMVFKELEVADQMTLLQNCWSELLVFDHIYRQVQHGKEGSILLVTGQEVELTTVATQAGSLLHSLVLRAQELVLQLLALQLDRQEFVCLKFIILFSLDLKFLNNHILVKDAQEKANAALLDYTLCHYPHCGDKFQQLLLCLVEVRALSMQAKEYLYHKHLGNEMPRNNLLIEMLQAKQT

[15] = target: Nuclear receptor subfamily 5 group A member 2 (Homo sapiens, UniProt O00482); format: functional, cell-based;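 also: HEK293T cells transfected with LRH-1 and a StAR promoter luciferase reporter; potency for inhibitors that lower LRH-1 driven reporter light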
Nuclear receptor subfamily 5 group A member 2, sequence (O00482 whole entry): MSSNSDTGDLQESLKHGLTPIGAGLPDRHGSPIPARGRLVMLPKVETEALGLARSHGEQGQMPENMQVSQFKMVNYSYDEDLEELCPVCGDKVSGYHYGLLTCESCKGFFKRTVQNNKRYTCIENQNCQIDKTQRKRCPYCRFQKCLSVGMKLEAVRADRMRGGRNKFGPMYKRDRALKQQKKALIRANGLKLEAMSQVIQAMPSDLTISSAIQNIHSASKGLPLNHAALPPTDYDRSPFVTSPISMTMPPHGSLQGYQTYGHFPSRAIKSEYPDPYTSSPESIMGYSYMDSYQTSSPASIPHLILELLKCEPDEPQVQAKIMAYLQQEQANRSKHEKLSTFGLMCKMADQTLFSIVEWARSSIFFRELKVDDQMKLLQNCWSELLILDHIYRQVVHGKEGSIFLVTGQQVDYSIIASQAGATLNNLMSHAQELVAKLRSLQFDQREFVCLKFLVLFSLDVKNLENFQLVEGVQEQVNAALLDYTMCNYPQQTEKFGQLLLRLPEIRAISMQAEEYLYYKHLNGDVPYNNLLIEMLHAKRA

cells [16] = format: functional
CAAX prenyl protease 2 = target: T3, CAAX prenyl protease 2 (Homo sapiens, UniProt Q9Y256); assay: human Rce1 protease inhibitors, dose response, biochemical, yeast membranes, quenched-peptide fluorescence, cherry-pick (AID 588849)
T3 sequence (Q9Y256 whole entry): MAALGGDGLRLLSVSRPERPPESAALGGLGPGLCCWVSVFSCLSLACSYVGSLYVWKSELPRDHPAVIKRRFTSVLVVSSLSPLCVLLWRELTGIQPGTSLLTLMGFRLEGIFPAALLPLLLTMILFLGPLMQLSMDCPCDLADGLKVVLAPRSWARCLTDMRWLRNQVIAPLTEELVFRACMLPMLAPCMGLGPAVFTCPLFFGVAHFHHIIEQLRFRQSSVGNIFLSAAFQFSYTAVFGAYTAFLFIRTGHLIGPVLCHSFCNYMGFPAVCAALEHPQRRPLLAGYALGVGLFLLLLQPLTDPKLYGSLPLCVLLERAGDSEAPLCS

HeLa = assay: HeLa cell cytotoxicity, dose response, cytotoxicity control for MITF activator project, CellTiter-Glo luminescence, cherry-pick samples (AID 540259); format: functional, cell-based; settings: Homo sapiens
[17] = target: Heat shock protein HSP 90-alpha (Homo sapiens, UniProt P07900); format: functional, organism-based
[18] = HepG2 cell cytotoxicity, dose response, cytotoxicity control for Shn3 inhibitor project, CellTiter-Glo, cherry-picked (AID 624134); format: functional, cell-based
[19] = control 3'UTR Renilla luciferase suppression, dose response, counter-screen for Shn3 inhibitor project, cell-based, Clone20-Shn3RL, cherry-picked (AID 624133); format: functional
cells [20] = format: functional, cell-based
[21] = Shn3 3'UTR reporter inhibitors, dose response, cell-based, Clone20 osteoblasts, firefly luciferase, cherry-picked (AID 624132); format: functional;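 also: firefly luciferase luminescence from reporter carrying the Shn3 3'UTR in osteoblasts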
HEK293 [22] = assay: inhibitors of LMP1-driven NF-kB reporter, dose response, cell-based, HEK293, luciferase, cherry-pick (AID 588343); format: functional; settings: Homo sapiens
cells [23] = format: functional, cell-based; remark: listed apart in the source

Voltage-gated inwardly rectifying potassium channel KCNH2, sequence (Q12809 whole entry): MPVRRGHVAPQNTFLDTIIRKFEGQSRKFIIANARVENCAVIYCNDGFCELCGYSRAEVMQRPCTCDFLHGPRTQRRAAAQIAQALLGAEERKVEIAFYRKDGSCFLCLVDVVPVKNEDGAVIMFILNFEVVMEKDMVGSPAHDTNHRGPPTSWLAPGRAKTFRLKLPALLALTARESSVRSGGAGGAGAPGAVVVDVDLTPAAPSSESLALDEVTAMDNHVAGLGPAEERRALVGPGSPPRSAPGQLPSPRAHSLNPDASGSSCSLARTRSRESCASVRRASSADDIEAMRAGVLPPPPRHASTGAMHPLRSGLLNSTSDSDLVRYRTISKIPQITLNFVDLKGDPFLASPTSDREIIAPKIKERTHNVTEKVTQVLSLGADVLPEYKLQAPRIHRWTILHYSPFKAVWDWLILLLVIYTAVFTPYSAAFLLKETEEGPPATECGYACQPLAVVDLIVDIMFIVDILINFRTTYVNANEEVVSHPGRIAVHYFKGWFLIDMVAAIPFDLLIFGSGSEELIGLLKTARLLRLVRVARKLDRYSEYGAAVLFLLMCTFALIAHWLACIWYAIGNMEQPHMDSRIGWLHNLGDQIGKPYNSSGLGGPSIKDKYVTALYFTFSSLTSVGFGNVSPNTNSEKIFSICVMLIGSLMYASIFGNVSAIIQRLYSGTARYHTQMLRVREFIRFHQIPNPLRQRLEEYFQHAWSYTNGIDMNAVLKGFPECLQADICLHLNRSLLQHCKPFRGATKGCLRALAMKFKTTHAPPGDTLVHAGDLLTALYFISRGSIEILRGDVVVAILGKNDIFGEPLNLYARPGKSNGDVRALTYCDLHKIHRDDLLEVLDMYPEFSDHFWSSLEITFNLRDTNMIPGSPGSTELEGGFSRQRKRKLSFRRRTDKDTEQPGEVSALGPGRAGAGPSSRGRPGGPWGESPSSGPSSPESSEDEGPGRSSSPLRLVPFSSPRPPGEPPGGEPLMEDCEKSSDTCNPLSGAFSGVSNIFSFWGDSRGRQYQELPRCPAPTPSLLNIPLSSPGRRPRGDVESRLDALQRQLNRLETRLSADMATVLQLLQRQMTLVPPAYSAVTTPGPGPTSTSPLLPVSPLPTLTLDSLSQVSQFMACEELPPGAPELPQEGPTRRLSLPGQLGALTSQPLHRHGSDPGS

CN1[C@@H]2CC[C@H]1C[C@@H](OC(c1ccccc1)c1ccccc1N)C2 (some centres undefined) [AMINOBENZTROPINE]
AC50 [1]: 11.2 µM (inconclusive)

O=C(CCCN1C(=O)/C(=C/c2ccccc2Cl)SC1=S)NNC(=O)c1ccccc1
IC50 (HEK293 [2]): 3.13 µM (active) | IC50 (Cysteine protease ATG4B): 16.6 µM (active) | IC50 [3]: > 80 µM (inactive) | EC50 [4]: > 20 µM (inactive) | IC50 (HEK293 [5]): 3.04 µM (active) | IC50 (Phospholipase A2): 5.28 µM (active) | EC50 [6]: > 112 µM (not active) | IC50 (HEK293 [7]): > 20 µM (inactive) | EC50 [8]: > 112 µM (not active) | EC50 (HEK293 [9]): > 20 µM (inactive) | IC50 (HEK293 [10]): > 20 µM (inactive)

Cc1onc(-c2ccccc2)c1C(=O)ON=C(N)c1ccc([N+](=O)[O-])o1
IC50 [11]: 69.7 µM (inactive) | CC50 [12]: > 20 µM (active) | CC50 [13]: > 40 µM (active) | IC50 (Exodeoxyribonuclease V): > 119 µM (inactive) | IC50 [14]: 35.9 µM (inactive) | IC50 (Steroidogenic factor 1): 2.03 µM (active) | IC50 [15]: 11.1 µM (inactive) | IC50 (cells [16]): 6.29 µM (active)

Cc1ccc(S(=O)(=O)Nc2ccccc2C(=O)NCC2CCCO2)cc1 (centres undefined)
AC50 (CAAX prenyl protease 2): 44.8 µM (active)

CSCc1ccc(C(=O)Nc2cc(C)cc(C)c2)cc1
AC50 (HeLa): 161 µM (active)

Cc1ccccc1S(=O)(=O)NC(=Nc1nc2ccccc2s1)c1ccccc1
AC50 (HeLa): 263 µM (active)

CC(C)C(=O)NC(c1cccc([N+](=O)[O-])c1)c1ccc2cccnc2c1O (centres undefined)
AC50 [17]: 2.7 µM (active) | AC50 [18]: 2.17 µM (active) | IC50 [11]: > 119 µM (inactive) | AC50 [19]: 0.924 µM (active) | IC50 (Exodeoxyribonuclease V): > 119 µM (inactive) | EC50 (cells [20]): > 350 µM (not active) | AC50 [21]: 2.57 µM (active) | AC50 (HEK293 [22]): 6.46 µM (active) | EC50 (cells [23]): 6.78 µM (active)

COc1ccc(NC2=Nc3ccccc3CC2)cc1
AC50 (HeLa): > 350 µM (inactive)

COc1ccc2c3c1O[C@H]1C(=O)CC[C@@]4(O)C(C2)N(CC2CC2)CCC314 (some centres undefined)
AC50 [1]: 17.8 µM (inconclusive)
